Values quoted from earlier work in article PMC12284023, “Metabolomic and chemometric profiling of crimson grapes during drying and its impact on antidiabetic activity” (NPJ Science of Food, 2025).
In brackets after ≈: the same amount, converted by molar mass.

Assays:
diabetic mice = system: diabetic mice; parameters: method as in ref 58 = [58]; 58. Ding H Blood glucose-lowering activity of protocatechuic acid is mediated by inhibiting α-glucosidase Food Sci. Hum. Wellness 2024 13 1212 1219 Ding, H. et al. Blood glucose-lowering activity of p; conditions: diabetic mice ref 58
pancreatic lipase = molecular target: pancreatic lipase; parameters: method as in PMID 26284613; conditions: in vitro, dose-dependent ref 61
α-glucosidase enzyme = molecular target: α-glucosidase enzyme; parameters: method as in ref 56 = [56]; 56. Cásedas G Cyanidin-3-O-glucoside inhibits different enzymes involved in central nervous system pathologies and type-2 diabetes South Afr. J. Bot. 2019 120 241 246 Cásedas, G. et al. Cyanidin-3-O-g; conditions: read-out: IC50 against α-glucosidase enzyme
[1] = system: streptozotocin-induced diabetic mouse; parameters: method as in ref 57 = [57]; 57. Choi K Choi S-I Park MH Han J-S Cyanidin-3-O-glucoside ameliorates postprandial hyperglycemia in diabetic mice J. Life Sci. 2017 27 32 37 Choi, K., Choi, S.-I., Park, M. H. & Han, J.-S. Cyanidin-3; conditions: oral administration of soluble starch with compound, streptozotocin-induced diabetic mouse ref 57
[2] = system: streptozotocin-injected rat; parameters: method as in PMID 32446112; conditions: via suppressing uric acid, plasma glucose, triglyceride, total cholesterol, creatinine, IL-6, TNF-α, MCP-1 levels ref 60
[3] = system: streptozotocin-induced diabetic rats; parameters: method as in PMID 35932369; conditions: streptozotocin-induced diabetic rats ref 62
[4] = system: glycation products such as 5-hydroxymethylfurfural, fructosamine, and advanced glycation end products; parameters: method as in ref 58 = [58]; 58. Ding H Blood glucose-lowering activity of protocatechuic acid is mediated by inhibiting α-glucosidase Food Sci. Hum. Wellness 2024 13 1212 1219 Ding, H. et al. Blood glucose-lowering activity of p; conditions: advanced glycation end products ref 58

For O=C(O)c1ccc(O)c(O)c1 [protocatechuic acid], the postprandial hypoglycemic activity (diabetic mice) is listed as “acclaimed postprandial hypoglycemic activity”.
In the case of O=c1ccc2cc(O[C@@H]3O[C@H](CO)[C@@H](O)[C@H](O)[C@H]3O)c(O)cc2o1 [Esculin], the “IC50 pancreatic lipase inhibition” value (pancreatic lipase) is given as 11.6 ± 0.92 mg/L (≈ 34.1 µM).
In the case of OC[C@H]1O[C@@H](Oc2cc3c(O)cc(O)cc3[o+]c2-c2ccc(O)c(O)c2)[C@H](O)[C@@H](O)[C@@H]1O [Cyanidin-3-O-glucoside], the IC50 (α-glucosidase enzyme) is listed as 480 µM and the “levels of postprandial blood glucose” value [1] is listed as “significantly decreased”.
In the case of CC(C)[C@@H](C)/C=C/[C@@H](C)[C@H]1CC[C@H]2C3=CC=C4C[C@@H](O)CC[C@]4(C)[C@H]3CC[C@]12C [ergosterol, Ergosterol], the diabetic nephropathy [2] is listed as “attenuated diabetic nephropathy”.
In the case of CC(C)(C)[C@]1(O)CC2OC(=O)CC23C(=O)OC2OC(=O)[C@H](O)C231 (some centres unmarked) [bilobalide, Bilobalide], the anti-retinopathy activity [3] is listed as “exhibited anti-retinopathy activity” and the blood glucose levels [3] is listed as “decreased blood glucose levels”.
In the case of O=C(O)[C@H]1O[C@@H](Oc2c(-c3ccc(O)c(O)c3)oc3cc(O)cc(O)c3c2=O)[C@H](O)[C@@H](O)[C@@H]1O [quercetin-3-O-glucuronide, Quercetin-3-O-glucuronide], the “suppression of glycation products” value [4] is listed as “effectively suppressed”.
